Reference: ChEMBL document CHEMBL4251606, “Design and characterization of α-lipoic acyl shikonin ester twin drugs as tubulin and PDK1 dual inhibitors” (Eur J Med Chem, 2018)
Active and inactive are the calls of the source. The calls are words filed in the database; no cut-off is given here.

Key:
HeLa [1] = test: Induction of apoptosis in human HeLa cells assessed as necrotic cells at 4 uM after 24 hrs by Annexin V-APC/propidium iodide staining-based FACScan flow cytometric analysis (reference value: 1.18%); type: functional
[2] = biological target: [Pyruvate dehydrogenase (acetyl-transferring)] kinase isozyme 1, mitochondrial (Homo sapiens) (UniProt Q15118); test: Inhibition of PDK1 in human HeLa cells assessed as decrease in PDH-E1 alpha p-ser300 expression up to 8 uM by Western blot analysis; type: cell-based
HeLa [3] = test: Induction of apoptosis in human HeLa cells assessed as late apoptotic cells at 6 uM after 12 hrs by Annexin V-APC/propidium iodide staining-based FACScan flow cytometric analysis (reference value: 3.84%); type: functional
HeLa [4] = test: Induction of apoptosis in human HeLa cells assessed as late apoptotic cells by measuring FL3-H+ cells at 2 uM after 12 hrs by propidium iodide staining-based flow cytometric analysis (reference value: 3.66%); type: functional
HeLa [5] = test: Induction of apoptosis in human HeLa cells assessed as viable cells at 4 uM after 24 hrs by Annexin V-APC/propidium iodide staining-based FACScan flow cytometric analysis (reference value: 85.1%); type: functional; settings: read-out: Activity

inhibition [2]: Active
Compound: CC(C)=CC[C@@H](OC(=O)CCCC[C@@H]1CCSC(c2ccccc2)S1)C1=CC(=O)c2c(O)ccc(O)c2C1=O (stereo not given in full)
Activity (HeLa [1]): 16.9% | Activity (HeLa [3]): 29.9% | Activity (HeLa [4]): 3.9% | viability at 4 µM (HeLa [5]): 18.1%
